Results published in paper PMC7956971, “Fluorometric Liposome Screen for Inhibitors of a Physiologically Important Bacterial Ion Channel” (Frontiers in Microbiology, 2021).
pIC50: −log10 of the molar value. Read-outs that look alike come from different tables or passages of the source.

Assays:
KtrAB [1] = molecular target: T1, KtrAB (Bacillus subtilis, UniProt O32081); assay: ACMA fluorescence K+ efflux assay in proteoliposomes, 96-well, Hill fit of final fluorescence; assay type: biochemical
T1 construct: gene ktrB; purified complex of dimeric membrane protein KtrB and octameric cytoplasmic KtrA ring, reconstituted in liposomes; with Ktr system potassium uptake protein A
T1 sequence (O32081 whole entry): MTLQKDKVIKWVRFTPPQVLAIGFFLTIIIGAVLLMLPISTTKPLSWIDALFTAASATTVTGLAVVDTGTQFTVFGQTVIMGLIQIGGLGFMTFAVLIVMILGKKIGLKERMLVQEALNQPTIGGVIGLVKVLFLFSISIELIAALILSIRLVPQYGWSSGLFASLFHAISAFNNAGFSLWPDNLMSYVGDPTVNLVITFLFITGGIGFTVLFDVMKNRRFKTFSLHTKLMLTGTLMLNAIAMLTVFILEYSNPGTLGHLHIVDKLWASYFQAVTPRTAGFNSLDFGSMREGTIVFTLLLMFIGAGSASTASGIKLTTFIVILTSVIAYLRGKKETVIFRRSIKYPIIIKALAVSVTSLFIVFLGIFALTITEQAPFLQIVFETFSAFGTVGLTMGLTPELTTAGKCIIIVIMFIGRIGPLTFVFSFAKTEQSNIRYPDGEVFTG
T1 sequence (O32080 whole entry, further chain): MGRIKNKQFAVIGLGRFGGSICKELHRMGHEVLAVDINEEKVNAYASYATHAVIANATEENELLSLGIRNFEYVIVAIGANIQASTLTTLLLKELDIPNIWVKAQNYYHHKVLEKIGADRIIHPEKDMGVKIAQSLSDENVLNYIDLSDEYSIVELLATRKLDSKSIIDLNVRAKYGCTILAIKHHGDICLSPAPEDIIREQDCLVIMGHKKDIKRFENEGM

NaKΔN19/F92A = molecular target: T2, NaKΔN19/F92A (Bacillus cereus, UniProt Q81HW2, F92A); details: read-out: KI; no nucleotide; pH 8.0; KI defined as constant of 50% inhibition
T2 construct: gene BC_0669
T2 sequence (Q81HW2 19-110 F92A): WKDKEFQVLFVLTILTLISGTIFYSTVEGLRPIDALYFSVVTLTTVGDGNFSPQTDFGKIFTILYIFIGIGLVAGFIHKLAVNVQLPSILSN

KtrAB [2] = molecular target: T3, KtrAB (Bacillus subtilis, UniProt O32081, R417K); assay: ACMA fluorescence K+ efflux assay in proteoliposomes, single concentration; assay type: biochemical; details: ATP form; also tested in the ADP form
T3 construct: gene ktrB; purified complex of dimeric membrane protein KtrB and octameric cytoplasmic KtrA ring, reconstituted in liposomes; with Ktr system potassium uptake protein A
T3 sequence (O32080 whole entry): as the sequence (O32080 whole entry, further chain) above
T3 sequence (O32081 whole entry R417K): as the sequence (O32081 whole entry) above, with R417K counted along it

KtrB = molecular target: T4, KtrB (Bacillus subtilis, UniProt O32081); assay: ACMA fluorescence K+ efflux assay in proteoliposomes, 96-well, Hill fit of final fluorescence; assay type: biochemical
T4 construct: purified membrane subunit KtrB alone (no KtrA), reconstituted in liposomes; dimer
T4 sequence (O32081 whole entry): as the sequence (O32081 whole entry) above

Row | Structure (SMILES) | pIC50 (KtrAB [1]; read-out: KI) | further results
1 | Cc1cc(C)c(OCC(O)CNC(C)(C)CC(C)(C)C)c(C)c1 (centres unmarked) [compound 1, compound #1] | 5.70 | pIC50 (NaKΔN19/F92A): 4.85
2 | OC(CN1CCCCCC1)CN(c1ccccc1)c1ccccc1 (centres unmarked) [compound 3, compound #3] | 5.70 | 
3 | COc1ccc(CN2CCN(c3cccc(C)c3C)CC2)c(OC)c1 [compound 6, compound #6] | 6.00 | pIC50 (NaKΔN19/F92A): 4.80
4 | CCN(CC)CCn1c(=N)n(CC(=O)C23CC4CC(CC(C4)C2)C3)c2ccccc21 [compound 21, compound #21] | 6.10 | 
5 | Cc1cc(C)c(C)c(OCCCCN2CCCCC2)c1 [compound 25, compound #25] | 5.70 | 
6 | CCCN1CCC(N(CCc2ccccc2)Cc2ccccc2)CC1 [compound 31, compound #31] | 6.00 | 
7 | O=C(Nc1ccc(Cl)cc1)Nc1cccc(C(F)(F)F)c1 [compound 36, compound #36] |  | pIC50 (KtrAB [1]; 0.1 mM ATP (active state), 0.5 mM MgCl2, pH 8.0, KI defined as constant of 50% inhibition, read-out: KI): 5.10; % inhibition at 6 μM (KtrAB [2]): all tested compounds showed inhibition with both the active and inactive forms of KtrABR417K; pIC50 (KtrB; no nucleotide, KtrB alone, pH 8.0, KI defined as constant of 50% inhibition, read-out: KI): 6.30
8 | COc1ccc(Br)cc1CNCCc1cccc(F)c1 [compound 39, compound #39] |  | pIC50 (KtrAB [1]): 5.40; pIC50 (KtrB): 5.42
9 | CC1CCCC(C)N1CC(O)COc1ccc(Cl)cc1 (centres unmarked) [compound 41, compound #41] | 5.52 | 
